Measured values from patent US8163775B2, “Allosteric modulators of metabotropic glutamate receptors” (Addex Pharma SA, priority 2003, dated 2012).

Tests used:
[1] = molecular target: orthosteric glutamate site of mGluR5 (Homo sapiens, UniProt P41594); conditions: cited from earlier work
mGluR5 [2] = molecular target: mGluR5 (Homo sapiens, UniProt P41594); conditions: cited from earlier work
mGluR5 [3] = molecular target: T1, mGluR5 (Rattus norvegicus, UniProt P31424); assay: mGluR5 assay on rat cultured cortical astrocytes (Ca2+ mobilization, FLIPR); format: cell-based; conditions: for increase of 1 μM glutamate-induced Ca2+ mobilization: 3 μM compound, 1 μM glutamate (EC20), rat cultured astrocytes, FIG. 1; for agonistic activity in the absence of glutamate: no glutamate, compared to buffer value
T1 construct: a functional expression of mGluR5 receptors; endogenous in cells; host or cells: primary cortical astrocytes from Sprague-Dawley rat embryos (15 days), treated with bFGF and EGF
Protocol: For subsequent seeding, the FCS supplementation was reduced to 10%. After 12 days, cells were subplated by trypsinisation onto poly-D-lysine precoated 384-well plates at a density of 20.000 cells per well in culture buffer supplemented with […] βFGF (basic fibroblast growth factor) (Invitrogen, Basel, Switzerland) and 10 ng/ml EGF (epidermal growth factor) (Invitrogen, Basel, Switzerland).
After 60 min of loading with 4 uM Fluo-4 (TefLabs, Austin, Tex.), the cells were washed three times with 50 μl of PBS Buffer and resuspended in 45 μl of Assay Buffer. The plates were then transferred to a Fluorometric Imaging Plate Reader (FLIPR, Molecular Devices, Sunnyvale, Calif.) for the assessment of intracellular calcium flux. […] The final DMSO concentration in the assay was 0.3%. In each experiment, fluorescence was then monitored as a function of time for 3 minutes and the data analyzed using Microsoft Excel and GraphPad Prism. Each data point was also measured two times.
The concentration-response curves of representative compounds of the present invention in the presence of EC20 of glutamate were generated using the Prism GraphPad program (Graph Pad Software Inc, San Diego, USA).

T1 sequence (P31424 21-1203): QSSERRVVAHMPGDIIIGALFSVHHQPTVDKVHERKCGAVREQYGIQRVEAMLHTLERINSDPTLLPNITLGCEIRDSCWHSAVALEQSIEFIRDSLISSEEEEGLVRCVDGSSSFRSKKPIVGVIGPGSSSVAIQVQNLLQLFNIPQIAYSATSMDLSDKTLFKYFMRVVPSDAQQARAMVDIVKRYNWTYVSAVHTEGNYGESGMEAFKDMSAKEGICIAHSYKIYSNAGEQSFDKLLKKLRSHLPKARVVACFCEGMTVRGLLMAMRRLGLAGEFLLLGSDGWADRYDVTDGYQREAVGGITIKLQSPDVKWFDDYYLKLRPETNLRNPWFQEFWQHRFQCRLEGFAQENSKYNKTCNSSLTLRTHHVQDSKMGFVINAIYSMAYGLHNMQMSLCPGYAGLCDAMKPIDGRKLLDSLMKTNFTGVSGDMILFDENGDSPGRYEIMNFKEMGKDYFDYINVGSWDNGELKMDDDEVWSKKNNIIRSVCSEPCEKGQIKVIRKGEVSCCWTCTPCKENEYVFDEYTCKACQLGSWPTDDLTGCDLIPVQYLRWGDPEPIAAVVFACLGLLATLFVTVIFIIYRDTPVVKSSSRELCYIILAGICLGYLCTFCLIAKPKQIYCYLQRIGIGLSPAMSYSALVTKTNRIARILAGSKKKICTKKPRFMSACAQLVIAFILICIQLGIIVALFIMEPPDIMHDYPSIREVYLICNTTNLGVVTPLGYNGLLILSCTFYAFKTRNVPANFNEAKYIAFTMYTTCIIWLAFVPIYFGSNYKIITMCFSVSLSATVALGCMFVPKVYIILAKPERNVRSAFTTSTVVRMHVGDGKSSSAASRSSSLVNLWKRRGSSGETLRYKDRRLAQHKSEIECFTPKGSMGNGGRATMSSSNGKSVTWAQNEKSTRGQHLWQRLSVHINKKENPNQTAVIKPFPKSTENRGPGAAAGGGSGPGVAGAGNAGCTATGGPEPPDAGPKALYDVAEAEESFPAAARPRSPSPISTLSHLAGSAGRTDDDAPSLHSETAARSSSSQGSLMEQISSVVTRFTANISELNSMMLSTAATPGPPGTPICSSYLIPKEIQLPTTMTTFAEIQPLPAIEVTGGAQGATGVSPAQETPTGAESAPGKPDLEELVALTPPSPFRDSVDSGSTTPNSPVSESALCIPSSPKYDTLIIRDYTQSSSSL
Sequence of mGluR5 (Homo sapiens, UniProt P41594) (P41594 21-1212): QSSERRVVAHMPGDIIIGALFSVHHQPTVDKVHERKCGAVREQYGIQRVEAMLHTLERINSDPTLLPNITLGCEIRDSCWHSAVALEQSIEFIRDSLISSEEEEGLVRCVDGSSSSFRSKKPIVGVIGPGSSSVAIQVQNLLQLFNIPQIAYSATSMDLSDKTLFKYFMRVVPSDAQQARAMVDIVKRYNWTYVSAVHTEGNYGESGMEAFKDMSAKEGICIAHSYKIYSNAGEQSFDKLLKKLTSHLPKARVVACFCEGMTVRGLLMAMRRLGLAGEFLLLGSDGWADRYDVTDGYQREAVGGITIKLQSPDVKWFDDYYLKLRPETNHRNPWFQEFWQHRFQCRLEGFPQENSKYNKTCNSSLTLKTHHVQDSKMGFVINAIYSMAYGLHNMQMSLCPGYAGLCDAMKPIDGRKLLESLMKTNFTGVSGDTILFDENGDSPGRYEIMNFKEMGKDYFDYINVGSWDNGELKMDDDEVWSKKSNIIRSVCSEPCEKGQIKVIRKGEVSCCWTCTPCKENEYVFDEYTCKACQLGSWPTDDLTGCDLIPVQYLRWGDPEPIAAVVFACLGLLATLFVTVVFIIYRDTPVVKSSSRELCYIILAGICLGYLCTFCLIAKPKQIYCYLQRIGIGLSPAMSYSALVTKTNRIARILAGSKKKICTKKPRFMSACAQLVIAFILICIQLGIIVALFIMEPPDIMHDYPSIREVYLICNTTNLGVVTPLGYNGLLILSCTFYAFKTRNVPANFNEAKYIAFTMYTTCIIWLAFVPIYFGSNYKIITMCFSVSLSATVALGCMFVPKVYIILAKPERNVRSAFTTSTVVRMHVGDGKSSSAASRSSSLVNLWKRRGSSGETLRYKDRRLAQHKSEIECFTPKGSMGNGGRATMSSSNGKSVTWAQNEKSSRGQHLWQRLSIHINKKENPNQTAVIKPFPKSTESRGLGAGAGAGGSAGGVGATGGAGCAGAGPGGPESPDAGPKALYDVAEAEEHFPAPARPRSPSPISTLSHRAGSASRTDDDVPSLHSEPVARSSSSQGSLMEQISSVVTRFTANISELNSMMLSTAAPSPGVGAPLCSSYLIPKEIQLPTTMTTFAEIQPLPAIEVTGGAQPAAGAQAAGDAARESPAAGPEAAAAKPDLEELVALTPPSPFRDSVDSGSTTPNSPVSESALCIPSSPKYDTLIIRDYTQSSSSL
Sequence of orthosteric glutamate site of mGluR5 (P41594 21-1212): as above

increase of 1 μM glutamate-induced Ca2+ mobilization (mGluR5 [3]) | SMILES | inhibition of the binding of [3H]-quisqualate to the orthosteric glutamate site [1] | in vitro potency as mGluR5 positive allosteric modulator (mGluR5 [2]) | agonistic activity in the absence of glutamate (mGluR5 [3])
 | Fc1cccc(C=NN=Cc2cccc(F)c2)c1 [DFB, 3,3′-Difluorobenzaldazine] | not able to inhibit | low in vitro potency | 
increase | O=C(c1ccc(F)cc1)N1CCC[C@H](c2nc(-c3ccccn3)no2)C1 [Example 56, (4-Fluoro-phenyl)-[(S)-3-(3-pyridin-2-yl-[1,2,4]oxadiazol-5-yl)-piperidin-1-yl]-methanone] |  |  | no statistically significant agonistic activity
increase | O=C(c1ccc(F)cc1)N1CCC[C@H](c2nc(-c3ccccc3F)no2)C1 [Example 55, (4-Fluoro-phenyl)-{(S)-3-[3-(2-fluoro-phenyl)-[1,2,4]oxadiazol-5-yl]-piperidin-1-yl}-methanone] |  |  | no statistically significant agonistic activity
